Data as given in patent publication US20210105999A1, “COMPOSITIONS FOR PROLONGING THE SURVIVAL AFTER ORTHOTOPIC AND HETEROTOPIC XENOGENEIC HEART, KIDNEY, LUNG OR LIVER TRANSPLANTATIONS” (priority 2018, published 2021).

T1: porcine growth hormone receptor (GHR) (pig, UniProt P19756 19-638)
T1 construct: whole, on cells; Endogenous receptor in tissue sections of control pigs; GHR-KO pigs (frameshift in exon 3) lack it; also called porcine GHR
T1 sequence (looked up): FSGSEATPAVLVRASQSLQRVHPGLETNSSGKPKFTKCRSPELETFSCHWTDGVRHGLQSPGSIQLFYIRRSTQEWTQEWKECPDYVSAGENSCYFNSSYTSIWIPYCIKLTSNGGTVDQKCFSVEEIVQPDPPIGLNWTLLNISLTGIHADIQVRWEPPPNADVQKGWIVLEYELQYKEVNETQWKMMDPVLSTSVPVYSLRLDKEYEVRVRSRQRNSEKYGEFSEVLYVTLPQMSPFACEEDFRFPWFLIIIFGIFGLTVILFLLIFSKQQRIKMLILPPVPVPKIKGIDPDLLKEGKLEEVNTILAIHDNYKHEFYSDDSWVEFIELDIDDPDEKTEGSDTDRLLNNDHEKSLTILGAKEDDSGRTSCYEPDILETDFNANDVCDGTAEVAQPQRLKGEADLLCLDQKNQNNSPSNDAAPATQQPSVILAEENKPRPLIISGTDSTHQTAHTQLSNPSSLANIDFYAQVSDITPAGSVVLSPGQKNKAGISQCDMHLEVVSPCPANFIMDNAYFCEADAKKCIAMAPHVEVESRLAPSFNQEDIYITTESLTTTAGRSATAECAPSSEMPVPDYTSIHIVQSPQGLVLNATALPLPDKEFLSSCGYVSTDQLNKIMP

B1: recombinant rat GH (no. 16343667, ImmunoTools) (ligand, UniProt P01244 27-216, looked up)
chain: FPAMPLSSLFANAVLRAQHLHQLAADTYKEFERAYIPEGQRYSIQNAQAAFCFSETIPAPTGKEEAQQRTDMELLRFSLLLIQSWLGPVQFLSRIFTNSLMFGTSDRVYEKLKDLEEGIQALMQELEDGSPRIGQILKQTYDKFDANMRSDDALLKNYGLLSCFKKDLHKAETYLRVMKCRRFAESSCAF
notes: Used at 0.5 ug/mL as the ligand in ligand immunohistochemistry; Detected with goat anti-rat GH polyclonal antibody; also called growth hormone

Assays:
phosphorylated mTOR = target: T2, phosphorylated mTOR (Sus scrofa, UniProt F1RHR8); experiment: Western blot analysis of myocardium of transplanted hearts, phosphorylated mTOR; format: in vivo, pig; details: experiment 67 (group III), after treatment with temsirolimus, compared to control (Co)
T2 construct: heart samples were homogenized in Laemmli-extraction-buffer; from tissue; host or cells: myocardium of GTKO/hCD46/hTM pig donor hearts transplanted orthotopically into baboons (Papio anubis); control: non-transplanted pig heart
Protocol: For protein extraction, heart samples were homogenized in Laemmli-extraction-buffer, and the protein content was estimated by the bicinchoninic acid (BCA, Merck, Darmstadt, Germany) protein assay. 20 μg of total protein was separated by 10% SDS-PAGE and transferred to polyvinylidene difluoride (PDVF) membranes (Millipore, Billerica, USA) by electroblotting. Membranes were washed in Tris-buffered saline solution with 0.1% Tween-20 (Merck) (TBS-T) and blocked in 5% w/v fat-free milk powder (Roth, Karlsruhe, Germany) for 1 h at room temperature. Then membranes were washed again in TBS-T and incubated in 5% w/v BSA (Roth) of the appropriate primary antibody overnight at 4° C. […] Bound antibodies were detected using an enhanced chemiluminescence detection reagent (ECL Advance Western Blotting Detection Kit, GE Healthcare, Munich, Germany) and appropriate x-ray films (GE Healthcare). […]
For protein extraction, heart samples were homogenized in Laemmli sample buffer and the protein content was estimated using the bicinchoninic acid (BCA, Merck) protein assay. […] Bound antibodies were detected using an enhanced chemiluminescence detection reagent (ECL Advance Western Blotting Detection Kit, GE Healthcare) and appropriate X-ray films (GE Healthcare). […]

[1] = system: transplanted GT-KO/hCD46/hTM porcine donor heart; experiment: Life-supporting orthotopic pig-to-baboon cardiac xenotransplantation; format: in vivo, baboon (Papio Anubis)
Description: Seven juvenile pigs of cross-bred genetic backround (German Landrace and Large White, blood group 0) served as donors for heart xenotransplantation. All organs were homozygous for alpha 1,3-galactosyltransferase knockout (GT-KO), and transgeneic for hCD46/thrombomodulin (hTM) (Revivicor, Blacksburg, Va., USA and Institute for Molecular Animal Breeding and Biotechnology, Gene Center, Faculty of Veterinary Medicine, Ludwig-Maximilians-University, Munich, Germany). Localisation and stability of hCD46/hTM expression was verified post-mortem by immunohistochemistry (FIG. 15). Donor heart function and absence of valvular defects were evaluated 7 days prior to transplantation by echocardiographies. Seven male captive-bred baboons (Papio Anubis, blood groups B and AB) were used as recipients.
The recipient's thorax was opened at midline. Unfractionated heparin (500 IU/kg; Heparin-Natrium-25000-ratiopharm, ratiopharm GmbH, Ulm, Germany) was given and the heart-lung machine connected, using both caval veins and the ascending aorta. Cardiopulmonary bypass commenced and the recipient cooled (30° C. in group I, 34° C. in groups II and III). After crossclamping the ascending aorta, the recipient's heart was excised at the atrial levels, both large vessels were cut. The porcine donor heart was transplanted applying Shumway's and Lower's technique (cf. reference 8).
Immunosuppression was based on Mohiuddin's regimen (cf. reference 5; there were changes as indicated in the following), with C1 esterase inhibitor instead of cobra venom factor for complement inhibition. Induction consisted of anti-CD20 antibody (Mabthera; Roche Pharma AG, Grenzach-Wyhlen, Germany), ATG (Thymoglobuline, Sanofi-Aventis Germany GmbH, Frankfurt, Germany), and either anti-CD40 antibody (mouse/rhesus chimeric IgG4 clone 2C10R4, NIH Nonhuman Primate Reagent Resource, Mass Biologicals, Boston, Mass., USA; courtesy of Keith Reimann) or humanised anti-CD40L pasylated Fab (production: Wacker-Chemie, Burghausen, Germany; purification: XL-protein GmbH, Freising, Germany; courtesy of Arne Skerra, cf. reference 9). Maintenance immunosuppression consisted of MMF (CellCept, Roche, Basle, Switzerland; trough level 2-3 μg/ml), either anti-CD40 antibody or anti-CD40L pasylated Fab, methylprednisolone (Urbasone solubile, Sanofi-Aventis Germany GmbH, Frankfurt, Germany). Anti-inflammatory therapy included II-6-receptor antibody (RoActemra, Roche Pharma AG, Grenzach-Wyhlen, Germany), TNFα inhibitor (Enbrel, Pfizer Pharma GmbH, Berlin, Germany) and II-1-receptor antagonist (Kineret, Swedish Orphan Biovitrum GmbH, Martinsried, Germany). Additive therapy: acetylsalicylic acid (Aspirin, Bayer Vital GmbH, Leverkusen, Germany), unfractionated heparin (Heparin-Natrium-25000-ratiopharm, ratiopharm GmbH, Ulm, Germany), C1 esterase inhibitor (Berinert, CSL Behring GmbH, Hattersheim, Germany), ganciclovir (Cymevene, Roche Pharma AG, Grenzach-Wyhlen, Germany), cefuroxime (Cefuroxim Hikma, Hikma Pharma GmbH, Martinsried, Germany) and epoetin beta (NeoRecormon 5000IU, Roche Pharma AG, Grenzach-Wyhlen, Germany).
Starting from 10 mg/kg/d, methylprednisolone was tapered down 1 mg/kg every 10 days in group I and II; in group III, methylprednisolone was tapered down to 0.1 mg/kg within 19 days. […]
Transthoracic echocardiographies were done in analgosedation at regular intervals using an HP Sonos 7500 (HP Inc., Palo Alto, Calif., USA); midpapillary short axis views were recorded. […]

PCNA = experiment: Western blot analysis of myocardium of transplanted hearts, PCNA; format: in vivo, pig; details: experiment 67 (group III), after treatment with temsirolimus, compared to control (Co)
Protocol: For protein extraction, heart samples were homogenized in Laemmli-extraction-buffer, and the protein content was estimated by the bicinchoninic acid (BCA, Merck, Darmstadt, Germany) protein assay. 20 μg of total protein was separated by 10% SDS-PAGE and transferred to polyvinylidene difluoride (PDVF) membranes (Millipore, Billerica, USA) by electroblotting. Membranes were washed in Tris-buffered saline solution with 0.1% Tween-20 (Merck) (TBS-T) and blocked in 5% w/v fat-free milk powder (Roth, Karlsruhe, Germany) for 1 h at room temperature. Then membranes were washed again in TBS-T and incubated in 5% w/v BSA (Roth) of the appropriate primary antibody overnight at 4° C. The following antibodies were used: rabbit anti-human pmTOR (#5536; Cell Signaling, Frankfurt, Germany) and mouse anti-human PCNA (#2586; Cell Signalling). After washing, membranes were incubated in 5% w/v fat-free milk powder with a horseradish peroxidase labelled secondary antibody for 1 h at room temperature. Bound antibodies were detected using an enhanced chemiluminescence detection reagent (ECL Advance Western Blotting Detection Kit, GE Healthcare, Munich, Germany) and appropriate x-ray films (GE Healthcare). After detection, membranes were stripped (Elution buffer: 2% SDS, 62.5 mM Tris/HCl, pH 6.7 and 100 mM […] for 30 min at 70° C.) and incubated with an appropriate second antibody. […]

[2] = target: T1, porcine growth hormone receptor (GHR); experiment: ligand immunohistochemistry: rat GH on liver and kidney paraffin sections of control and GHR-KO pigs, detected with anti-rat GH antibody and DAB
Protocol: Liver and kidney tissue of GHR-KO and control pigs was fixed overnight in 4% formaldehyde and routinely embedded in paraffin. Paraffin sections were dewaxed, and endogenous peroxidase and biotin were blocked with 1% H₂O₂ in Tris-buffered saline (TBS) for 15 min and by using the avidin/biotin blocking kit (no. SP-2001; Vector Laboratories), respectively. After blocking with 0.5% fish gelatin for 30 min, the slides were incubated in 0.5 μg/mL recombinant rat GH (no. 16343667, ImmunoTools) in 0.2% fish gelatin solution overnight at 4° C. They were then washed 3 times for 5 min in TBS and incubated in goat anti-rat GH polyclonal antibody solution (dilution 1:2,400, no. AF1566, R&D Systems) for 6 h at room temperature. After 3 washing steps in TBS (10 min each), the slides were incubated in biotinylated rabbit anti-goat IgG solution (dilution 1:100, no. BA-5000, Vector Laboratories) for 1 h at room temperature, washed 3 times for 10 min in TBS, and finally incubated with horseradish peroxidase-labelled avidin biotin complex for 30 min (no. PK-6100, VECTASTAIN Elite ABC-Peroxidase kit, Vector Laboratories). Immunoreactivity was visualized using 3,3′-diaminobenzidine tetrahydrochloride dihydrate (DAB) (brown color). Nuclear counterstaining was performed with Mayer's hemalum (blue color). […]

[3] = group III, with antihypertensive treatment and early glucocorticoid tapering

T2 sequence (F1RHR8 1-2548): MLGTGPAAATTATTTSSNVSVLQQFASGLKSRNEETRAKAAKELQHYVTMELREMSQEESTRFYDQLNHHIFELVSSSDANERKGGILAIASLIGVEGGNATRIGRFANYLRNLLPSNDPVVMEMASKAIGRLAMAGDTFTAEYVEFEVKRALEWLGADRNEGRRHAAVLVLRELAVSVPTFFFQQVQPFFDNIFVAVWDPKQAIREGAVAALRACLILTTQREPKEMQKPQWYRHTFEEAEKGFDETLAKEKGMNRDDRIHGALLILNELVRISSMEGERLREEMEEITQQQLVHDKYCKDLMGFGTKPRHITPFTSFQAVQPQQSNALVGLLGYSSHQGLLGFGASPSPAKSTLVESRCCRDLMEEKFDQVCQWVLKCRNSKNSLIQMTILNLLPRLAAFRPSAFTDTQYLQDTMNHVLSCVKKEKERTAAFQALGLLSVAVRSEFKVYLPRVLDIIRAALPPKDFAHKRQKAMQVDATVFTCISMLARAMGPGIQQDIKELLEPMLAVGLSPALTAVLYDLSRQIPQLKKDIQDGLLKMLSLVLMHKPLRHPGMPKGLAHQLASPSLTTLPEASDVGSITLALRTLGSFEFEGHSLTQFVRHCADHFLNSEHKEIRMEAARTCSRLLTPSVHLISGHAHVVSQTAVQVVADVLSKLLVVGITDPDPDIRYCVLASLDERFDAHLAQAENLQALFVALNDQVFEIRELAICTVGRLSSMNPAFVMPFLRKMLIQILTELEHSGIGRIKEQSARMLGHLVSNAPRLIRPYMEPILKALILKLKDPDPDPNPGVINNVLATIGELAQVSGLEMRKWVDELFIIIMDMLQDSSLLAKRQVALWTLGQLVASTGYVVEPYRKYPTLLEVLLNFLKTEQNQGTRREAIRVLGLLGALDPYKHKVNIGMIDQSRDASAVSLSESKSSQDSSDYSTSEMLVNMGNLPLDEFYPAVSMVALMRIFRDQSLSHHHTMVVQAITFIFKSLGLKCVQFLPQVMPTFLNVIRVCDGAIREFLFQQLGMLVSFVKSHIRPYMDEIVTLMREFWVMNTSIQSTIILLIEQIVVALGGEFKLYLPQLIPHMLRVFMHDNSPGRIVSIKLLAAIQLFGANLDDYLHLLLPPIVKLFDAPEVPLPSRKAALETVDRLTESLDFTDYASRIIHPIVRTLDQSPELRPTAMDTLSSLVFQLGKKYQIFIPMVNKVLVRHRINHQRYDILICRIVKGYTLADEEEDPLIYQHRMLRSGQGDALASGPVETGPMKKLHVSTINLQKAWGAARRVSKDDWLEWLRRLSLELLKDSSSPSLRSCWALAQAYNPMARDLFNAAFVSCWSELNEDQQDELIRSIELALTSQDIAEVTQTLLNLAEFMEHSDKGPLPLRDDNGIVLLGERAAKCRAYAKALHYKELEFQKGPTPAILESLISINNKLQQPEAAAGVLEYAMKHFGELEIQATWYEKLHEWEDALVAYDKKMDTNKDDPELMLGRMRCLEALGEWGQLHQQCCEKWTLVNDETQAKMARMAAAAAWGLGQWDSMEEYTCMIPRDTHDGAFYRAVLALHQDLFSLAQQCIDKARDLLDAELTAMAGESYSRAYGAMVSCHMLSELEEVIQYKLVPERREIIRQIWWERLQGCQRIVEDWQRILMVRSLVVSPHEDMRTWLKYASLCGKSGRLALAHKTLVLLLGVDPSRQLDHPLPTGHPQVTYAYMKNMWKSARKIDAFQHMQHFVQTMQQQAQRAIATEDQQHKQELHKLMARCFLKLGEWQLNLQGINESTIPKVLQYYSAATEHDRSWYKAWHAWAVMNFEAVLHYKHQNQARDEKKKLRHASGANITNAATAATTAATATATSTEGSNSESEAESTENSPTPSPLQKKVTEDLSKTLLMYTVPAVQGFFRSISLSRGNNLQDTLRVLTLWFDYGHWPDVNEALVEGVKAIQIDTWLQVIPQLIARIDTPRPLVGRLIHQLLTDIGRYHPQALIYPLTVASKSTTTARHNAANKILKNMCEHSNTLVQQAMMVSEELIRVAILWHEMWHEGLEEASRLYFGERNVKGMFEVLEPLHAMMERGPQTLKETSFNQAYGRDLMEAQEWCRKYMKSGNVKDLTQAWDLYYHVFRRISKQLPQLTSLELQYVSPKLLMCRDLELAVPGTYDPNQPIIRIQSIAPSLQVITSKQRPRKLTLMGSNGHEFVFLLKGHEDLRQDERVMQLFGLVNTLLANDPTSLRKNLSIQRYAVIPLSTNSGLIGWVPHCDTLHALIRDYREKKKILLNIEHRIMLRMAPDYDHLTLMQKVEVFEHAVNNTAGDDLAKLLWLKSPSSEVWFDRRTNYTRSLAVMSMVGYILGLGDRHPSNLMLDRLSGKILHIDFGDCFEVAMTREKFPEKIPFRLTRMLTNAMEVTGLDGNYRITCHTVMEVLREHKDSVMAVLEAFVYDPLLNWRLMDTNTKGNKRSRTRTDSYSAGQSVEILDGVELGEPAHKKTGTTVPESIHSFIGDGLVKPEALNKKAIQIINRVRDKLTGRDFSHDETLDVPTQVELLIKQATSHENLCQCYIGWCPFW

Molecule | phosphorylated mTOR in myocardium (Western blot) (phosphorylated mTOR) | pathologic findings described for groups I and II (heart and liver failure, graft overgrowth, myocardial hypertrophy) ([1]; group III recipients: antihypertensive treatment, early glucocorticoid weaning and additional temsirolimus medication) | cardiac overgrowth ([1]; group III, combination of blood pressure lowering, early cortisone tapering and temsirolimus) | myocardial hypertrophy of the transplanted heart [1, 3] | obliteration of LV cavity [1, 3] | growth of the cardiac graft (LV mass) after discontinuation of temsirolimus ([1]; recipients 13 and 14, i.v. temsirolimus discontinued on day 175 and on day 161) | PCNA in myocardium (Western blot) (PCNA) | binding result [2]
CO[C@H]1C[C@@H]2CC[C@@H](C)[C@@](O)(O2)C(=O)C(=O)N2CCCC[C@H]2C(=O)O[C@H]([C@H](C)C[C@@H]2CC[C@@H](OC(=O)C(C)(CO)CO)[C@H](OC)C2)CC(=O)[C@H](C)/C=C(\C)[C@@H](O)[C@@H](OC)C(=O)[C@H](C)C[C@H](C)/C=C/C=C/C=C/1C [temsirolimus] | downregulated | absent | successfully counteracted | mitigated | omitted | increased growth of the cardiac graft | downregulated | 
B1 |  |  |  |  |  |  |  | binds
